From a melting point compilation (Tetko et al.; mined from patent text by program, amines drawn as free bases though some values may be those of a salt)

Compound | melting point
CCOC1CCC2(C)C(=CCC3C4CCC(=O)C4(C)CCC32)C1 (stereo not given) | 146 to 147 °C
CCOC(=O)c1cn2c3c(c(F)c(F)cc3c1=O)CCC2CO (stereo not given) | 256 to 258 °C
COC(=O)c1cc(O)c(N=Nc2ccccc2)c(O)c1 | 216 to 218 °C
NC(=O)Cc1cccc2c(=O)cc(C3=CCCCC3)oc12 | 244 to 245 °C
Cc1ccn2nc(S(=O)(=O)Nc3c(Cl)cccc3Cl)nc2n1 | 126 to 129 °C
COC(=O)c1ccc(C(=O)Nc2cc3c4c(c2)CCCC4CCC3)cc1 | 217 to 218 °C
COC(=O)c1ccccc1S(=O)(=O)NC(=O)c1cc(C)on1 | 101 °C
CCOC(=O)C(Cc1cccnc1)c1nnc2c(CC(C)C)nc(-c3ccccc3)cn12 (stereo not given) | 110 to 111 °C
CNCc1nnc2n1-c1ccc(Cl)cc1C(c1ccccc1)=NC2 | 152 to 156 °C
CCC1=CC(=O)c2ccccc2C1=O | 87 to 88 °C
CS(=O)(=O)Nc1cc(OCCNC2CCCC2)ccc1C(=O)Nc1ccccc1 | 231 to 232 °C
CC(=O)NN1CCC(c2ccc(-c3cccc(N)n3)cc2)CC1 | 224 to 227 °C
CCOC(=O)C(C)(C#N)c1cccc(S(=O)(=O)c2ccccc2Cl)c1OC (stereo not given) | 178 to 179 °C
CCCN(CCC)Cc1csc(-c2ncn3c2CN(C)C(=O)c2c-3ccc(F)c2Cl)n1 | 123 °C
CCCCc1ncc(/C=C2\C(=O)NC(=O)N2Cc2cccs2)n1Cc1ccc(C(=O)O)cc1 | 297 to 299 °C
COc1cccc(N2CCN(C(=O)c3ccccc3C(c3ccc(O)cc3)c3ccc(O)cc3)CC2)c1 | 229 to 234 °C
CCC(=O)n1ccc(-c2ccc(C(=O)N3Cc4cccn4Cc4ccccc43)cc2)n1 | 150 to 152 °C
CC(C)(C)OC(=O)NC1CCc2ccc(C=O)cc2C1 (stereo not given) | 98 to 101 °C
C=CCC1(CC=C)CCC(=Cc2ccc(Cl)cc2)C1(O)Cn1cncn1 (stereo not given) | 128 °C
Cc1ccc(NC(=O)c2cc(Cl)ccc2NCC2CCN(C3CCOCC3)CC2)nc1 | 166 to 168 °C
CSc1ccc(-c2nc(SC)c(C#N)c(=O)n2-c2ccc(F)cc2)cc1 | 219 to 221 °C
OC[C@@H]1O[C@H](n2c(NC3CC3)nc3c(Br)c(Cl)c(Cl)cc32)[C@@H](O)[C@H]1O | 205 to 208 °C
Cc1[nH]cc2c(=O)n(-c3ccc(F)cc3)nc-2c1-c1ccccc1 | 303 to 317 °C
CCN(CC)C(=O)CCc1cc2ccccc2c(-c2ccccc2)n1 | 70 °C
O=C1Cc2ccccc2N1CCCl | 74 °C
CC(/C=C/c1ccsc1-c1cc2c(cc1C)C(C)(C)CCC2(C)C)=C\C(=O)O | 194 to 195 °C
CS(=O)(=O)N[C@@H]1CCCC[C@H]1Nc1nc(Nc2ccc3c(c2)CN(CCO)CCS3)ncc1Cl | 76 to 86 °C

Compound | melting point
ClCCCOc1ccc(-c2ccccc2)cc1 | 65 to 66 °C
COC(=O)C1c2ccc(OCc3ccccc3)cc2CCN1CC(=O)N1CCC(c2ccccc2)CC1 (stereo not given) | 112 to 114 °C
O=[N+]([O-])C(F)(CO)CO | 86 to 87 °C
NS(=O)(=O)c1ncccc1C1=NOCC1 | 155 to 156 °C
COC(=O)CCn1c(=O)n(CCN2CCN(c3cccc(C(F)(F)F)c3)CC2)c(=O)c2cscc21 | 87 to 88 °C
CC1(C)CCC(C)(C)c2cc(-c3cc4ccc(C(=O)O)cc4s3)ccc21 | 297 °C
CSc1nn2c(N3CCN(c4ccccc4)CC3)cc(C)nc2c1S(=O)(=O)c1ccccc1 | > 230 °C
Cc1nc(C(=O)NC23CC4CC(CC(O)(C4)C2)C3)c(C)n1-c1ccccc1 | 215 to 220 °C
COC(=O)c1cccc2nc(N3CCCCC3)n(Cc3ccc(-c4ccccc4-c4nnn[nH]4)cc3)c12 | 146 to 150 °C
O=C(O)c1cc2cc3[nH]c(=O)oc3cc2[nH]1 | 288 to 290 °C
CC(=O)C(C#N)c1ccc(F)c(Cl)c1 (stereo not given) | 133 to 134 °C
COCCOCCCCC(=O)c1ccc(Br)cc1 | 25.5 to 26.5 °C
Cc1cc(Cl)cc(C(=O)NCC(C)S(C)=O)c1NC(=O)c1cc(C(F)(F)F)nn1-c1ncccc1Cl (stereo not given) | 229 to 232 °C
CC(C)(C)OC(=O)n1cnc(CN2C[C@@H](Cc3ccccc3)N(S(C)(=O)=O)Cc3cc(C#N)ccc32)c1 | 150 to 151 °C
NC(=NO)C1CCN(c2ccc3c(NC(=O)CC4CCCCC4)c(Cl)ccc3n2)CC1 | 246 to 247 °C
NC(=O)[C@H]1CN(c2ccc(I)c(F)c2)C(=O)O1 | 176 to 178 °C
O=C(O)CCCCCCCn1cnc(-c2ccccc2Cl)c1-c1ccccc1Cl | 145 to 146 °C
Fc1ccc(N2CCN(CCCOc3ccc(-n4cccn4)cc3)CC2)cc1 | 151 to 153 °C
CCOc1ccc2c(c1)n(C1CCCCC1)c(=O)n2S(=O)(=O)c1ccc(C(=O)Nc2ccccc2C)cc1OC | 179 °C
CC(=O)Cc1ccccc1Br | 60 to 65 °C
C=CCONC(=O)c1nc(-c2ccc(Cl)c(OC)c2F)nc(N)c1Cl | 159 to 161 °C
NC(=NO)c1cccc(Oc2ccc3c(c2)S(=O)(=O)N=C2CCCN23)c1 | 165 to 169 °C
CSc1cc2c(cc1C(F)(F)F)N(C(=O)Nc1cccc(C(=O)Nc3ccncc3)c1)CC2 | > 200 °C
O=c1c2ccc(Cl)cc2[nH]c2c(O)nn(CC#Cc3ccccc3Cl)c(=O)c12 | 255 to 257 °C
CC1CCC(C)C1C(=O)O (stereo not given) | 45 °C
CCOC(=O)c1c(CCCCn2cncn2)nc2sc3c(c2c1-c1ccc(OC)c(OC)c1)CCN(C(=O)c1ccc(Cl)cc1)C3 | 165 to 166 °C
Cn1c(Nc2cc(C(F)(F)F)ccc2C(F)(F)F)nc(C(F)(F)F)cc1=O | 155 to 156 °C

The next lines start with the values.

melting point | Compound
135 to 150 °C | O=C(O)CCCc1cc2nc(Cl)ccc2n1S(=O)(=O)c1c(F)cc(F)cc1F
196 to 198 °C | COc1cccc2c(CCCNC3COc4c(F)ccc(C(N)=O)c4C3)c[nH]c12 (stereo not given)
292 to 296 °C | CC(=C1SC(=O)NC1=O)c1ccc(OCCOc2c(-c3ccc(F)cc3)n(C)c3cc(Cl)ccc3c2=O)cc1
353 to 355 °C | O=c1[nH][nH]c(=O)c2nc3cc(Cl)ccc3cc12
226 to 229 °C | CC(C)(C)OC(=O)N1CCNC(C(=O)O)C1 (stereo not given)
199 to 200 °C | NC1N=C(Cl)C=C(Cl)N1c1c([N+](=O)[O-])cc(C(F)(F)F)c(Cl)c1[N+](=O)[O-] (stereo not given)
181 to 183 °C | CC1CN(c2cc3c(c(N)c2F)c(=O)c(C(=O)O)cn3C2CC2)CCN1 (stereo not given)
206 to 208 °C | Nc1c(F)c(N2CCC(c3ccccn3)C2)c(F)c2c1c(=O)c(C(=O)O)cn2C1CC1 (stereo not given)
153 to 155 °C | CCOC(=O)Nc1cc(I)c(NS(C)(=O)=O)cc1OC
206 to 208 °C | O=C(Nc1cc2ncc(CN3CCCC3)cc2cc1F)c1ccc(-c2ccccc2)cc1
299 to 302 °C | CCCn1cc2c(C3C(=O)Nc4ccc(C#N)cc43)nc(NCc3ccncc3)nc2n1 (stereo not given)
239 to 241 °C | COC12C=CC(CC1)C1=C2C(=O)c2c(O)ccc(O)c2C1=O (stereo not given)
91 to 92 °C | CCCCCCCCCCCCCCCCCNC(=O)OCCOCCOC(=O)NCc1ccccn1
102 to 104 °C | O=C(Oc1ccccc1)N1CCC(Sc2ccncc2)CC1
86 to 87 °C | O=C(CCC1CCC(=O)O1)NCCc1ccccc1 (stereo not given)
127 to 128 °C | CCOC(=O)C(C#N)=NC(=CN1CCOCC1)CC
117 °C | CCOC(=O)C(=CNc1cc(OCc2ccccc2)c(OCc2ccccc2)cn1)C(=O)OCC
75 °C | ClCCCOc1ccccc1Cc1cccc2[nH]ccc12
183 °C | COc1ccc(C(=O)O)nc1C
75 to 76 °C | Cc1ccc(C)c(C(=O)CC#N)c1
105 to 106 °C | COc1cc([N+](=O)[O-])c(C(OC(=O)C(Cl)(Cl)Cl)c2ccccc2)c([N+](=O)[O-])c1OC (stereo not given)

melting point | Compound
95 to 105 °C | Nc1ccc(C(=O)N2CCOCC2)cc1OCc1ccc(-c2ccccc2-c2nnnn2C(c2ccccc2)(c2ccccc2)c2ccccc2)cc1
181 to 182 °C | CN(c1cccc2cc(C(=O)NCC(C)(C#N)SCc3ccccc3)[nH]c12)S(=O)(=O)c1cccs1 (stereo not given)
228 °C | CCOc1ccc2c(c1)n(C1CCCCC1)c(=O)n2S(=O)(=O)c1ccc(C(=O)NC23CC4CC(CC(C4)C2)C3)cc1OC
130 to 140 °C | Cc1nc(O)cc(C2(c3ccc(Cl)cc3)CCC2)n1
165 to 169 °C | N[C@@H](Cc1c[nH]c2ccccc12)C(=O)N(N)C(=O)[C@H](Cc1c[nH]cn1)NC(=O)[C@@H]1CCC(=O)N1
246 °C | NS(=O)(=O)c1ccc(-c2cccc(-c3nc(-c4ccc(C(F)(F)F)nc4)cc(C(F)F)n3)c2)s1
67 to 76 °C | COCCN(C)S(=O)(=O)c1ccccc1Nc1nc(Nc2cc3c(cc2OC)CCN(CC(=O)N(C)C)CC3)ncc1Cl
178 to 180 °C | CC(COc1ccc(-n2nc3c(cc2=O)CCc2ccc(F)cc2-3)cc1)N(C)C (stereo not given)
116 to 120 °C | Cc1cc(F)cc2nc(Cl)c(Cl)nc12
332 to 336 °C | N#CCCn1c2ccc(O)cc2c2c3c(c(-c4ccccc4Cl)cc21)C(=O)NC3=O
134 to 136 °C | Clc1ccccc1CCN1CCN(c2n[nH]c3c2CCc2ccccc2-3)CC1
286 to 289 °C | C#Cc1cccc(Nc2ncnc3ccc(S(=O)(=O)n4ccc(C=CC(=O)O)c4)cc23)c1
83 to 85 °C | CCCc1c(OCCCOc2ccc(C(C)=O)c(OCc3ccccc3)c2CCC)ccc2c1OC(CO)CC2 (stereo not given)
148 to 150 °C | CC1=CC(O)C(OC(=O)c2ccc([N+](=O)[O-])cc2)C(C)(C)CC1=O (stereo not given)
86.5 to 88 °C | COc1ccc(C2(COC(C)=O)CCC(=O)CC2)cc1
> 300 °C | CN(C)Cc1cc2nc(C(=O)O)c(=O)[nH]c2cc1[N+](=O)[O-]
114 to 116 °C | CCCc1cc(=O)oc2cc(OCCCN3CCN(c4ccccc4)CC3)ccc12
198 to 200 °C | CS(=O)(=O)c1ccc(-c2nn3c(c2-c2ccc(F)cc2)OCCC3)cc1
113 to 115 °C | CC(C)(C)C(=O)c1c[nH]c2ncc(N3CCc4ccccc4C3=O)nc12
115 to 116 °C | COc1cc(C=CC=O)ccc1OCc1csc(-c2ccccc2)n1
